Entries after “also recorded” stand apart in the source; their conditions may differ. No end group written: not given here.
Legend:
murine melanoma B16F10 [1] = experiment: Reduction of the size of the tumor in newborns (Example 6); type: in vivo; details: 9-day old Balb/c mice, s.c. B16F10 established 5 days, 50 μg/ml in the tumors for 5 days
Experimental: For the study of the reduction of the size of the tumor in newborns making use of different therapies and their comparison with that of the invention, 5×10^5 cells of murine melanoma B16F10 were inoculated in a subcutaneous manner in the interscapular area of 9-day old female mice of the Balb/c strain.
(§1) Following 5 days post-inoculation, 50 μg/ml of the following therapies were inoculated in the tumors for 5 days: LLO91-99 (only peptide from listeriolysin O of Listeria monocytogenes, LLO91-99), GNP (empty gluconanoparticles), GNP-LLO91-99 (gluconanoparticles synthesized with the peptide from listeriolysin O of Listeria monocytogenes, LLO91-99), GNP-GAPDH1-22 (nanoparticles synthesized with the peptide from glyceraldehyde-3-phosphate dehydrogenase of Listeria monocytogenes, GAPDH1-22). As a control, a vector previously used in therapy was also included, dendritic cells loaded with the LLO91-99 (1×10^5 DC-LLO91-99) peptide.
(§2) Following this treatment, the mice were sacrificed and the tumors recovered, measuring their size with a gauge.

murine melanoma B16F10 [2] = experiment: Metastasis in the lung from murine melanoma (Example 3); type: in vivo, mice; details: s.c. B16F10, 50 μg/ml inoculated in the tumors for 5 days
Experimental: For the study of metastasis in the lung of murine melanoma following the use of different therapies and their comparison with that of the invention, 1×10^6 cells of murine melanoma B16F10 were inoculated in a subcutaneous manner just like in FIG. 1. Following 7 days post-inoculation, 50 μg/ml of the following therapeutic particles were inoculated in the tumors for 5 days: GNP (empty gluconanoparticles), GNP-LLO91-99 (gluconanoparticles synthesized with the peptide from listeriolysin O of Listeria monocytogenes, LLO91-99), GNP-GAPDH1-22 (nanoparticles synthesized with the peptide from glyceraldehyde-3-phosphate dehydrogenase of Listeria monocytogenes, GAPDH1-22) or no particle (NT). As a control, the vector previously used in therapy was also included consisting of dendritic cells loaded with the LLO91-99 (1×10^6 DC-LLO91-99) peptide.
Following this treatment, the mice were sacrificed and the lungs removed, which were washed with PBS. Subsequently, the tumor nodules were counted under a magnifying glass, which were observed as black spots on the lungs.

[3] = In vitro apoptosis-necrosis, flow cytometry annexin V-APC / 7-ADD; type: cell-based, hamster; details: 10 μg/ml, 16 hours, CHO
Experimental: 1.—Tumor cells. The cells used are: Hepa1-6, murine hepatocarcinoma, TC-1, murine lung carcinoma; B16F10, murine melanoma; A-375, human melanoma; hamster melanoma (ATCC).
(§3) 2.—In vitro apoptosis-necrosis. The different tumor cells (1×10^6 cells) are treated with 10 μg/ml of the GNP-LLO91-99 gold nanoparticles in culture plates, 16 hours prior to the apoptosis-necrosis analysis, including cells of each type of tumor without treatment with the gold nanoparticles (control). Following washing, the cells are analyzed by means of flow cytometry using two specific products, annexin V conjugated with the APC fluorochrome and the fluorescent marker for binding to DNA, 7-ADD (7-amino-actinomycin D). Apoptosis and necrosis in the tumor cells are analyzed by means of the differential marking with annexin V-APC and 7-ADD expressed as percentages. While the necrosis is indicated as the percentage of cells doubly marked with annexin V-APC and 7-ADD, the apoptosis is expressed as the percentage of cells marked only with annexin V.

glioblastoma (RG-1) = experiment: as above; type: cell-based; details: 10 μg/ml, 16 hours
Experimental: as §3

murine melanoma B16F10 [4] = experiment: Reduction of the size of the tumor, subcutaneous murine melanoma in adult mice (Example 2); type: in vivo; details: adult C57BL/6 mice, s.c. B16F10 established 7 days, 50 μg/ml inoculated in the tumors for 5 days
Experimental: For the study of the reduction of the size of the tumor making use of different therapies and their comparison with that of the invention, 1×10^6 cells of murine melanoma B16F10 were inoculated in a subcutaneous manner in the left ventral flank of 8-12-week old female mice of the C57BL/6 strain.
as §1, with “After 7” for “Following 5”, “GAPDH1-22) or no particle (NT). Dendritic cells loaded with the LLO91-99 (1×10^6 DC-LLO91-99) peptide were also included as” for “GAPDH1-22). As”, “therapy.” for “therapy was also included, dendritic cells loaded with the LLO91-99 (1×10^5 DC-LLO91-99) peptide.”
as §2

Substance: GNP-LLO91-99: gluconanoparticles synthesized with the peptide from listeriolysin O of Listeria monocytogenes, LLO91-99 (GYKDGNEYI; also: gold glyconanoparticle conjugate; UniProt P13128 91-99, looked up, fragment)
- tumor regression in newborns (murine melanoma B16F10 [1]): 95%
- formation of metastasis in the lungs (in words) (murine melanoma B16F10 [2]): prevents the formation of metastasis in the lungs
- prevention of the formation of metastasis in the lungs (murine melanoma B16F10 [2]; lung tumor nodules counted): more than 95%
- induction of tumor apoptosis and necrosis / inhibitory effect [3]: do not cause any inhibitory effect
- effect of inducing apoptosis (glioblastoma (RG-1)): not as significant
- induction of tumor apoptosis and necrosis (glioblastoma (RG-1)): induce both necrosis and apoptosis with the same percentages; also recorded: induce both tumor apoptosis and necrosis
- therapeutic effect on the melanoma (in words) (murine melanoma B16F10 [4]): does achieve a significant tumor regression
- tumor regression (murine melanoma B16F10 [4]): 90%
